Active and inactive are the calls of the source. The rule behind the calls is not given here.
What was measured:
UACC-62 = assay: Antiproliferative activity against human UACC-62 cells assessed as cell growth inhibition at 10 uM by SRB assay relative to control; assay type: functional
SK-MEL-5 = assay: Antiproliferative activity against human SK-MEL-5 cells assessed as cell growth inhibition at 10 uM by SRB assay; assay type: functional, cell-based
SK-MEL-2 = assay: Antiproliferative activity against human SK-MEL-2 cells assessed as cell growth inhibition at 10 uM by SRB assay relative to control; assay type: functional; conditions: Homo sapiens, SK-MEL-2, dose 10 µM
M14 [1] = assay: Antiproliferative activity against human M14 cells assessed as cell growth inhibition at 10 uM by SRB assay relative to control; assay type: functional
SK-MEL-28 = assay: Antiproliferative activity against human SK-MEL-28 cells assessed as cell growth inhibition at 10 uM by SRB assay; assay type: functional, cell-based
MDA-MB-435 = assay: Antiproliferative activity against human MDA-MB-435 cells assessed as cell growth inhibition at 10 uM by SRB assay; assay type: functional, cell-based
UACC-257 = assay: Antiproliferative activity against human UACC-257 cells assessed as cell growth inhibition at 10 uM by SRB assay relative to control; assay type: functional
LOX IMVI [2] = assay: Antiproliferative activity against human LOX IMVI cells assessed as cell growth inhibition at 10 uM by SRB assay relative to control; assay type: functional
Malme-3M = assay: Antiproliferative activity against human Malme-3M cells assessed as cell growth inhibition at 10 uM by SRB assay; assay type: functional, cell-based
[3] = Antiproliferative activity against human brain cancer cells assessed as cell growth inhibition at 10 uM by SRB assay relative to control; assay type: functional
RPMI-8226 [4] = assay: Antiproliferative activity against human RPMI-8226 cells assessed as cell growth inhibition at 10 uM by SRB assay relative to control; assay type: functional
HCT-15 = assay: Antiproliferative activity against human HCT-15 cells assessed as cell growth inhibition at 10 uM by SRB assay; assay type: functional, cell-based
SN12C = assay: Antiproliferative activity against human SN12C cells assessed as inhibition of cell growth at 10 uM by SRB assay relative to control; assay type: functional
HCC 2998 = assay: Antiproliferative activity against human HCC 2998 cells assessed as cell growth inhibition at 10 uM by SRB assay; assay type: functional, cell-based
Hs-578T [5] = assay: Antiproliferative activity against human Hs-578T cells assessed as inhibition of cell growth at 10 uM by SRB assay relative to control; assay type: functional
OVCAR-8 = assay: Antiproliferative activity against human OVCAR-8 cells assessed as cell growth inhibition at 10 uM by SRB assay relative to control; assay type: functional
Renal cancer cell line = assay: Antiproliferative activity against human renal cancer cells assessed as cell growth inhibition at 10 uM by SRB assay relative to control; assay type: functional
HCT-116 [6] = assay: Antiproliferative activity against human HCT-116 cells assessed as cell growth inhibition at 10 uM by SRB assay; assay type: functional, cell-based
Breast carcinoma cell = assay: Antiproliferative activity against human breast cancer cells assessed as cell growth inhibition at 10 uM by SRB assay relative to control; assay type: functional; conditions: pooled result: one value given for 3 cell lines, strains, targets or settings
786-0 = assay: Antiproliferative activity against human 786-0 cells assessed as inhibition of cell growth at 10 uM by SRB assay relative to control; assay type: functional
Lung cancer cell line = assay: Antiproliferative activity against human lung cancer cells assessed as cell growth inhibition at 10 uM by SRB assay relative to control; assay type: functional
SW-620 = assay: Antiproliferative activity against human SW620 cells assessed as cell growth inhibition at 10 uM by SRB assay; assay type: functional, cell-based
OVCAR-4 = assay: Antiproliferative activity against human OVCAR-4 cells assessed as cell growth inhibition at 10 uM by SRB assay relative to control; assay type: functional
KM12 = assay: Antiproliferative activity against human KM12 cells assessed as cell growth inhibition at 10 uM by SRB assay; assay type: functional, cell-based
NCI-H460 = assay: Antiproliferative activity against human NCI-H460 cells assessed as cell growth inhibition at 10 uM by SRB assay relative to control; assay type: functional
COLO 205 = assay: Antiproliferative activity against human COLO 205 cells assessed as cell growth inhibition at 10 uM by SRB assay; assay type: functional, cell-based
ACHN = assay: Antiproliferative activity against human ACHN cells assessed as inhibition of cell growth at 10 uM by SRB assay relative to control; assay type: functional; conditions: pooled result: one value given for 2 cell lines, strains, targets or settings
RXF 393 = assay: Antiproliferative activity against human RXF 393 cells assessed as inhibition of cell growth at 10 uM by SRB assay relative to control; assay type: functional
SNB-19 = assay: Antiproliferative activity against temozolomide resistant human SNB-19 cells assessed as cell growth inhibition at 10 uM by SRB assay; assay type: functional, cell-based
HT-29 = assay: Antiproliferative activity against human HT-29 cells assessed as cell growth inhibition at 10 uM by SRB assay; assay type: functional, cell-based
HOP-92 = assay: Antiproliferative activity against human HOP-92 cells assessed as cell growth inhibition at 10 uM by SRB assay; assay type: functional, cell-based
Prostatic carcinoma cell = assay: Antiproliferative activity against human prostatic carcinoma cells assessed as cell growth inhibition at 10 uM by SRB assay relative to control; assay type: functional
NCI-H522 = assay: Antiproliferative activity against human NCI-H522 cells assessed as cell growth inhibition at 10 uM by SRB assay; assay type: functional, cell-based
[7] = Antiproliferative activity against human colon cancer cells assessed as cell growth inhibition at 10 uM by SRB assay relative to control; assay type: functional; conditions: Colon carcinoma cell
K562 = assay: Antiproliferative activity against human K562 cells assessed as cell growth inhibition at 10 uM by SRB assay; assay type: functional, cell-based
HCT-116 [8] = assay: Antiproliferative activity against human HCT-116 cells assessed as cell growth inhibition at 10 uM by SRB assay relative to control; assay type: functional
[9] = Antiproliferative activity against human hematologic cancer cells assessed as cell growth inhibition at 10 uM by SRB assay relative to control; assay type: functional
NCI-H23 = assay: Antiproliferative activity against human NCI-H23 cells assessed as cell growth inhibition at 10 uM by SRB assay; assay type: functional
M14 [10] = assay: Antiproliferative activity against human M14 cells assessed as cell growth inhibition at 10 uM by SRB assay; assay type: functional, cell-based
Hs-578T [11] = assay: Antiproliferative activity against human Hs-578T cells assessed as inhibition of cell growth at 10 uM by SRB assay; assay type: functional, cell-based
CAKI-1 = assay: Antiproliferative activity against human CAKI-1 cells assessed as inhibition of cell growth at 10 uM by SRB assay relative to control; assay type: functional
EKVX = assay: Antiproliferative activity against human EKVX cells assessed as cell growth inhibition at 10 uM by SRB assay; assay type: functional
LOX IMVI [12] = assay: Antiproliferative activity against human LOX IMVI cells assessed as cell growth inhibition at 10 uM by SRB assay; assay type: functional, cell-based
RPMI-8226 [13] = assay: Antiproliferative activity against human RPMI-8226 cells assessed as cell growth inhibition at 10 uM by SRB assay; assay type: functional, cell-based
SF-295 = assay: Antiproliferative activity against human SF-295 cells assessed as cell growth inhibition at 10 uM by SRB assay; assay type: functional, cell-based
T47D = assay: Antiproliferative activity against estrogen receptor positive human T47D cells assessed as inhibition of cell growth at 10 uM by SRB assay relative to control; assay type: functional
NCI-H226 = assay: Antiproliferative activity against human NCI-H226 cells assessed as cell growth inhibition at 10 uM by SRB assay; assay type: functional
CCRF-CEM = assay: Antiproliferative activity against human CCRF-CEM cells assessed as cell growth inhibition at 10 uM by SRB assay; assay type: functional, cell-based
SR = assay: Antiproliferative activity against human SR cells assessed as cell growth inhibition at 10 uM by SRB assay; assay type: functional, cell-based
HL-60 = assay: Antiproliferative activity against human HL-60 cells assessed as cell growth inhibition at 10 uM by SRB assay; assay type: functional, cell-based
MOLT-4 = assay: Antiproliferative activity against human MOLT-4 cells assessed as cell growth inhibition at 10 uM by SRB assay; assay type: functional, cell-based
UO-31 = assay: Antiproliferative activity against human UO-31 cells assessed as inhibition of cell growth at 10 uM by SRB assay relative to control; assay type: functional
PC-3 = assay: Antiproliferative activity against human PC-3 cells assessed as inhibition of cell growth at 10 uM by SRB assay; assay type: functional, cell-based
DU-145 = assay: Antiproliferative activity against human DU-145 cells assessed as inhibition of cell growth at 10 uM by SRB assay relative to control; assay type: functional
SF-539 = assay: Antiproliferative activity against temozolomide resistant human SF-539 cells assessed as cell growth inhibition at 10 uM by SRB assay; assay type: functional, cell-based
SNB-75 = assay: Antiproliferative activity against temozolomide resistant human SNB-75 cells assessed as cell growth inhibition at 10 uM by SRB assay; assay type: functional, cell-based

SMILES | inhibition at 10 µM (UACC-62) [%] | inhibition at 10 µM (SK-MEL-2) [%] | inhibition (Malme-3M) | inhibition at 10 µM (RPMI-8226 [4]) [%] | inhibition at 10 µM (Renal cancer cell line) [%] | inhibition at 10 µM (ACHN) [%] | inhibition at 10 µM (RXF 393) [%] | inhibition (HOP-92) | inhibition (NCI-H522) | inhibition (K562) | inhibition at 10 µM (NCI-H23) [%] | inhibition (Hs-578T [11]) | inhibition at 10 µM (EKVX) [%] | inhibition (RPMI-8226 [13]) | inhibition (SF-295) | inhibition at 10 µM (NCI-H226) [%] | inhibition (CCRF-CEM) | inhibition (SR) | inhibition (HL-60) | inhibition (MOLT-4) | also measured
CN(C)/N=N/c1[nH]cnc1C(N)=O [DACARBAZINE] | 25.6 | 15 | inactive |  |  |  |  |  |  |  |  |  |  |  |  |  |  |  |  |  | inhibition (SK-MEL-5): inactive; inhibition at 10 µM (M14 [1]): 36.5%; inhibition (SK-MEL-28): inactive; inhibition (MDA-MB-435): inactive; inhibition at 10 µM (UACC-257): 15%; inhibition at 10 µM (LOX IMVI [2]): 49.3%
COc1cc2oc(-c3cccc(C(=O)Nc4ccc(Cl)cc4)c3)cc(=O)c2c(O)c1OC | 57.3 |  |  | 82.6 | > 50 | 53 | 53 |  |  |  |  |  |  |  |  |  |  |  |  |  | inhibition at 10 µM [3]: > 50%; inhibition (HCT-15): Active; inhibition at 10 µM (SN12C): 53%; inhibition (HCC 2998): Active; inhibition at 10 µM (Hs-578T [5]): 93.3%; inhibition at 10 µM (OVCAR-8): 83.7%; inhibition (HCT-116 [6]): Active; inhibition at 10 µM (Breast carcinoma cell): > 50%; inhibition at 10 µM (786-0): 53%; inhibition at 10 µM (Lung cancer cell line): > 50%; inhibition (SW-620): Active; inhibition at 10 µM (OVCAR-4): 130%; inhibition (KM12): Active; inhibition at 10 µM (NCI-H460): 79.5%; inhibition (COLO 205): Active; inhibition (SNB-19): Active; inhibition (HT-29): Active
COc1cc2oc(-c3cccc(NC(=O)c4ccc(Cl)cc4)c3)cc(=O)c2c(OC)c1OC |  | ≤ 46 | Active |  | > 50 | 51.1 | 51.1 | Active | Active | Active | < 50 | Active | < 50 | Active | Active | < 50 | Active | Active | Active | Active | inhibition at 10 µM (Prostatic carcinoma cell): > 50%; inhibition at 10 µM [7]: > 50%; inhibition at 10 µM (HCT-116 [8]): 88%; inhibition at 10 µM [9]: > 50%; inhibition (M14 [10]): Active; inhibition at 10 µM (CAKI-1): 51.1%; inhibition (LOX IMVI [12]): Active; inhibition at 10 µM (T47D): 62.2%
COc1cc2oc(-c3ccc(NC(=O)c4ccccc4Br)cc3)cc(=O)c2c(OC)c1OC |  |  |  |  |  |  |  | Active | Active | Active | < 50 | Active | < 50 | Active | Active | < 50 | Active | Active | Active | Active | inhibition (UO-31): Active; inhibition (PC-3): Active; inhibition at 10 µM (DU-145): 29.6%
COc1cc2oc(-c3cccc(C(=O)Nc4ccc(C)cc4)c3)cc(=O)c2c(O)c1OC |  |  |  | 82.6 |  |  |  |  |  |  |  |  |  |  |  |  |  |  |  |  | inhibition (SF-539): Active; inhibition (SNB-75): Active
